A short description of this series: gradient 5% acetonitrile 3 min, to 50% in 2 min, to 85% in 15 min, held 3 min, 100 µL/min. The settings on record: column: Zorbax Extend-C18 2.1 x 50 mm; eluents: water / acetonitrile, 0.1% formic acid. The gist of the method:
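The mobile phases were water and acetonitrile, each with 0.1% formic acid, pumped at 100 μL/min through a Zorbax Extend-C18 column (2.1 × 50 mm, 1.8 μm). Pure standards were injected as mixtures of ~100 molecules and detected by a quadrupole time-of-flight mass spectrometer in positive and negative ionization mode. Retention time came from computationally picked adduct peaks, each inspected by hand.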
`COc1cccc(CNC(=O)C2CCCN(c3nn4c(=O)c5c(nc4s3)CCCC5)C2)c1` (centres undefined) came in with an RP-LC retention time of 737 s.

`Cn1cc(C(=O)N2CC(c3nc(CCOCC4CCOCC4)no3)C2)cn1`: the RP-LC retention time came out at 663 s.

For the molecule `Cc1nc(-c2cccnc2)sc1C(=O)/C=C/c1ccc(Cl)cc1Cl`, the RP-LC retention time was determined as 1150 s.

On to `Cc1cc(C)nc(N2CCN(c3cc(C)nc4c(C)c(-c5ccc(Cl)cc5)nn34)CC2)n1`, for which the RP-LC retention time stood at 1020 s.

`CCc1nc(OCC(=O)NCc2ccc(N(C)C)cc2)c2c(C)c(C)oc2n1`: the RP-LC retention time was determined as 689 s.

As for `COc1ccc(N2CCN(c3cc(SCC(=O)NCc4ccc(Cl)cc4)ncn3)CC2)cc1`, the RP-LC retention time came to 908 s.

`CC(C)C(=O)Nc1ccc2c(c1)N(C(=O)c1cccs1)CCC2` showed an RP-LC retention time of 819 s.

In the case of `Cc1ccc(NC(=O)Cn2nc(N3CCCC3)c3ccccc3c2=O)cc1Cl`, the RP-LC retention time amounted to 1060 s.

Molecule `Cn1ncc2c(N3CCSCC3)nc(C(=O)Nc3cccc(OC(F)(F)F)c3)nc21` showed an RP-LC retention time of 1010 s.

`CCN(CC)S(=O)(=O)c1ccc2c(c1)N(CC(=O)N1CCCCC1)C(=O)C1CCCCN21` (centres undefined) came in with an RP-LC retention time of 905 s.

`CCCCCN1CC(=O)N(c2ccc(OC)cc2)[C@@H]2CS(=O)(=O)C[C@@H]21` had an RP-LC retention time of 708 s.

For the molecule `CCOC(=O)C(=O)Nc1cc(Cl)ccc1C#N`, the RP-LC retention time worked out at 763 s.

Take `CCNC(=O)C1CC(=O)N(C2CCCCC2)C1` (centres undefined): the RP-LC retention time came to 623 s.

Molecule `Cc1nc(OCC(=O)NCCN2CCCC2)c2c(-c3ccccc3)noc2n1` returned an RP-LC retention time of 627 s.

As for `Cc1ccc(S(=O)(=O)NC(=O)NC2=NC(C)(C)N(c3ccc(Cl)c(Cl)c3)C(N)=N2)cc1`, the RP-LC retention time turned out to be 733 s.

For the molecule `O=C(NC1CC1)[C@@H]1C[C@H](Oc2cccnc2)CN1C(=O)c1cnccn1`, the RP-LC retention time came out at 526 s.

With `O=C(Nc1cccc(-c2nc3ccccc3o2)c1)c1ccc(F)cc1F`, the RP-LC retention time came out at 994 s.

Molecule `O=C(NCCC1=CCCCC1)c1nc(Nc2ccccc2)c2ccccc2n1` showed an RP-LC retention time of 960 s.

As for `CN(C)C(=O)c1ccc2c(c1)nc(CN(C)C(=O)Nc1ccc(F)cc1)n2C`, the RP-LC retention time came out at 598 s.

In turn, `COc1ccc(Nc2c(-c3ccc(SC)cc3)nc3cnccn23)cc1OC` returned an RP-LC retention time of 818 s.

`CCN(CC)C(=O)c1ccc2c(c1)N(CC(=O)NC1CCCCCC1)C(=O)CO2` came in with an RP-LC retention time of 768 s.

`CCC(C)NC(=O)c1ccc(-c2csc(C)n2)cc1` (centres undefined) registered an RP-LC retention time of 799 s.

In the case of `CCOC(=O)c1cc([N+](=O)[O-])sc1NC(=O)c1ccc(Cl)s1`, the RP-LC retention time turned out to be 1310 s.

The molecule `CCc1nc(-c2csc(S(=O)(=O)N3CCCC(C(=O)Nc4ccccc4C)C3)c2)no1` (centres undefined) had an RP-LC retention time of 1010 s.

The molecule `CC(C)C(=O)Nc1ccc2c(c1)nc(CN1CCN(C(=O)c3ccco3)CC1)n2C` yielded an RP-LC retention time of 605 s.

On to `CC1CCN(S(=O)(=O)c2ccc(-c3nnc(C(=O)N4CCOCC4)o3)cc2)CC1`, for which the RP-LC retention time worked out at 797 s.

On to `CC(=O)c1ccc(NC(=O)CN2C(=O)CCn3nc(-c4cn(C)c5ccccc45)cc32)cc1`, for which the RP-LC retention time stood at 791 s.

Consider `CCn1cc(-c2nc(CC(=O)Nc3ccccc3Cl)cs2)c2cccnc21`, for which the RP-LC retention time is 1050 s.

The molecule `Cn1cc(-c2cc3n(n2)CCCN3C(=O)CCC(=O)NCCCN2CCCCC2)c2ccccc21` came in with an RP-LC retention time of 623 s.

`Cc1cc(N2CCN(C(=O)c3cc4ccccc4o3)CC2)ncn1` displayed an RP-LC retention time of 559 s.

`O=C(NCc1ccc(F)cc1)c1cn2ccncc2n1` gave an RP-LC retention time of 667 s.

`Cc1nc(CCNC(=O)[C@H]2CCCN2C(=O)c2ccccc2)cs1`: the RP-LC retention time was 622 s.

For the molecule `O=C(Cn1c(=O)cc(-c2nc(C3CC3)no2)c2ccccc21)Nc1ccc(F)cc1`, the RP-LC retention time amounted to 616 s.

On to `O=C(Cn1ccn2nc(-c3ccccc3)c(CO)c2c1=O)NCc1ccc2c(c1)OCO2`, for which the RP-LC retention time came to 738 s.

For the molecule `CCN1C=C(C(=O)OCc2cc(F)ccc2F)C(C)=NS1(=O)=O`, the RP-LC retention time came out at 975 s.

In turn, `O=C(CCc1c[nH]c2ccccc12)N1CCN(C(=O)c2cc(-c3cccnc3)n[nH]2)CC1` registered an RP-LC retention time of 814 s.

The molecule `Cc1ccc(Cl)c2c1NC(=O)C2(O)CC(=O)c1ccccc1` (centres undefined) gave an RP-LC retention time of 760 s.

With `O=c1ccc(-c2nc(-c3ccc(F)cc3)no2)nn1Cc1cccc(F)c1`, the RP-LC retention time is 1090 s.

As for `CC(=O)Nc1ccc(S(=O)(=O)N2CCCn3nc(-c4cccc(Cl)c4)cc3C2)cc1`, the RP-LC retention time was determined as 910 s.

Molecule `COc1cccc(-c2noc(Cn3ccn(-c4c(C)cccc4C)c(=O)c3=O)n2)c1` registered an RP-LC retention time of 872 s.

`COc1cccc(-c2nc(-c3ccc4oc(C)nc4c3)no2)c1OC` returned an RP-LC retention time of 1020 s.

As for `COc1ccc(-c2noc(Cn3ccn4nc(-c5ccc(C)cc5)cc4c3=O)n2)cc1OC`, the RP-LC retention time was 986 s.

The molecule `CN(C)c1ccc(NC(=O)COc2ccc(-c3nnc4n3CCCC4)cc2)cc1` came in with an RP-LC retention time of 585 s.

The molecule `O=S(=O)(Nc1cccn2ncnc12)c1ccccc1Cl` came in with an RP-LC retention time of 742 s.

Take `COCCc1noc(C2Cc3ccccc3N2C(=O)NCc2ccc(C)cc2)n1` (centres undefined): the RP-LC retention time is 973 s.

On to `CCCn1cc(CCNC(=O)Nc2ccc(C)cc2C)c2cccnc21`, for which the RP-LC retention time was 781 s.

`CCOC(=O)c1nc(NCCc2ccc(C)cc2)c2ccccc2n1` showed an RP-LC retention time of 821 s.

In turn, `Cn1c(=O)c2ccn(CC(=O)Nc3cccc(C(F)(F)F)c3)c2n(C)c1=O` yielded an RP-LC retention time of 705 s.

For `Cc1ccc(CSc2nc(CC(=O)Nc3ccc(-n4cnnn4)cc3)cs2)cc1`, the RP-LC retention time was determined as 868 s.

Turning to `O=C(NC1CC(=O)N(C2CC2)C1)c1cnc2ccccc2n1` (centres undefined), the RP-LC retention time is 594 s.

`O=C(NCC1CCOCC1)Nc1ccc(Cl)cc1C(F)(F)F`: the RP-LC retention time is 846 s.

In the case of `Cc1noc(CN2CCN(C3CCN(Cc4cc(C(F)(F)F)ccc4Cl)C3)C2=O)n1` (centres undefined), the RP-LC retention time was 660 s.

`Cc1cc(-c2cc(S(=O)(=O)N3CCC(Cc4ccccc4)CC3)c(C)s2)n[nH]1` showed an RP-LC retention time of 1090 s.

The molecule `CCN(CCN(C)C)c1ccc(C(=O)O)cc1NS(=O)(=O)c1ccc(F)cc1` yielded an RP-LC retention time of 613 s.

The molecule `CC(C(=O)N1CCCc2ccccc21)n1cnc2nc3c(cc2c1=O)CCCC3` (centres undefined) showed an RP-LC retention time of 818 s.

In the case of `Cc1cc(C(=O)N2c3ccccc3CC2c2nnc(C3CC3)o2)nn1C` (centres undefined), the RP-LC retention time turned out to be 786 s.

As for `CCCn1cc(CCNC(=O)c2ccccc2C)c2cccnc21`, the RP-LC retention time was 748 s.

Turning to `COCC(C)(O)CNS(=O)(=O)c1ccc(F)cc1C` (centres undefined), the RP-LC retention time amounted to 674 s.

In turn, `COc1ccc(NC(=O)C2(C)Oc3cccnc3N(C)C2=O)c(OC)c1` (centres undefined) showed an RP-LC retention time of 815 s.

Regarding `CCC(C)NC(=O)c1cc(-c2cccs2)nc2onc(C)c12` (centres undefined), the RP-LC retention time is 929 s.

In turn, `COc1ccccc1CNC(=O)CN1C(=O)C2CCCCN2c2ccc(S(=O)(=O)N(C)C)cc21` (centres undefined) had an RP-LC retention time of 885 s.

`CCn1c(=O)c2c(nc3n2CC(C)CN3c2ccc(Br)cc2)n(C)c1=O` (centres undefined) showed an RP-LC retention time of 954 s.

Molecule `O=C(c1nc(Cn2nc(-c3ccc(F)cc3)ccc2=O)no1)N1CCCC1` had an RP-LC retention time of 900 s.

`CC1CCN(S(=O)(=O)c2cc(-c3nnc(C4CC4)o3)co2)CC1` returned an RP-LC retention time of 945 s.

With `CCOc1ccc(-c2ccc(=O)n(Cc3nc(-c4ccccc4)no3)n2)cc1`, the RP-LC retention time stood at 1040 s.

As for `O=S(=O)(c1ccccc1)N1CCC(c2noc(-c3ccc(Cl)cc3)n2)CC1`, the RP-LC retention time is 1170 s.

The molecule `CCn1cc(-c2nc(CC(=O)Nc3cc(Cl)ccc3OC)cs2)c2cccnc21` returned an RP-LC retention time of 1130 s.

For `CCOC(=O)Cc1ccc(NC(=O)N2CCN(c3nc4ccccc4nc3C(F)(F)F)CC2)cc1`, the RP-LC retention time came to 1080 s.

`Cc1ccccc1-c1cc(C(=O)N2CCC(NC(=O)C3CCCC3)CC2)[nH]n1` yielded an RP-LC retention time of 712 s.

`O=C(Cn1c(=O)c2cccn2c2ccc(F)cc21)NCCc1cccs1` gave an RP-LC retention time of 822 s.

In turn, `COc1cccc(S(=O)(=O)N2CCC(c3noc(-c4cccnc4)n3)C2)c1` (centres undefined) showed an RP-LC retention time of 846 s.

`COC(=O)c1cccc(NC(=O)N(C)CCc2noc(C3CCCCC3)n2)c1` displayed an RP-LC retention time of 937 s.

The molecule `COc1ccc(-c2noc(Cc3nnc(-c4cccc(OC)c4)o3)n2)cc1` showed an RP-LC retention time of 992 s.

The molecule `COc1cc(NC(=O)C2CCCN(c3nc4ccccc4nc3C(F)(F)F)C2)cc(OC)c1` (centres undefined) came in with an RP-LC retention time of 1180 s.

The molecule `COC(=O)c1ccc2c(=O)n(Cc3ccc(F)cc3)c(N3CCCCC3)nc2c1` yielded an RP-LC retention time of 1210 s.

Take `Cc1nn(CC(=O)N2CCOCC2)c(=O)c2c(-n3cccc3)n(-c3cccc(F)c3)nc12`: the RP-LC retention time came to 733 s.

For `Cc1ccc(-c2nnc(Cc3nc(-c4ccncc4)no3)o2)cc1C`, the RP-LC retention time was 850 s.

For the molecule `O=C(Cn1c(=O)oc2ccccc21)N1C[C@@H](CO)[C@H](c2ccccn2)C1`, the RP-LC retention time was 591 s.

`COc1ccc(NC(=O)C2CCN(S(=O)(=O)c3cc(-c4noc(C5CC5)n4)cs3)CC2)cc1` registered an RP-LC retention time of 960 s.

(Values after the METLIN SMRT retention time set (Domingo-Almenara et al. 2019).)
